Measurements: patent publication US6548531B2, “Method for cancer therapy” (priority 2001, dated 2003)

Key:
[1] = system: MDA-MB-435 breast adenocarcinoma xenograft; assay: In vivo antitumor activity, established mammary fat pad xenograft; conditions: low doses as single agents, 3 weeks i.p.
[2] = Toxicity (body weight, deaths) in tumor-bearing mice; conditions: 3 weeks
Experimental: Drug Preparation and Treatment: Suspensions of Compound II were prepared by combining the drug and Pluronic F68 block copolymer at 1:9 or 1:18 ratios of drug to polymer, to prepare suspensions in the concentration range 0-10 mg/ml and 20 mg/ml respectively. […] The final ratio of liquid components (EtOH, Cremophor, and saline) were 5:5:90, respectively. The experiment consisted of 16 groups which contained a vehicle group, 3 groups given Paclitaxel at 7.5, 15 and 30 mg/kg as a single agent, 3 groups given Compound II at 12.5, 25 and 50 mg/kg as a single agent and […] combination groups of all doses of Paclitaxel and Compound II.
All mice were observed and weighed as groups, 7 times per week for three weeks. The average weight of individual mice was calculated by dividing the group weight by the number of animals per group. Percent body weight change was calculated using the formula:
(Current Average Weight−Initial Average Weight/Initial Average Weight) ×100.

Cn1cc(C2=C(c3cn(C)c4cc([N+](=O)[O-])ccc34)C(=O)NC2=O)c2ccccc21 [Compound II]
antitumor efficacy [1]: only minimally effective

CC(=O)O[C@H]1C(=O)[C@@]2(C)[C@H]([C@H](OC(=O)c3ccccc3)[C@]3(O)C[C@H](OC(=O)[C@H](O)[C@@H](NC(=O)c4ccccc4)c4ccccc4)C(C)=C1C3(C)C)[C@]1(OC(C)=O)CO[C@@H]1C[C@@H]2O [Paclitaxel, paclitaxel]
antitumor efficacy [1]: only minimally effective | Deaths/Total ([2]; Paclitaxel 7.5 mg/kg i.p. q.d. 5x/week): 2/10 | Deaths/Total ([2]; Paclitaxel 15 mg/kg i.p. q.d. 5x/week): 0/10 | Deaths/Total ([2]; Paclitaxel 30 mg/kg i.p. q.d. 3x/week): 0/10
